Legend:
[1] = kinetic aqueous solubility; format: physicochemical; settings: pH 7.4
[2] = tested on: cki1 and kes1 “bypass Sec14p” mutants; test: spot growth assay of bypass Sec14p mutants; format: cell-based, Saccharomyces cerevisiae; settings: 20 μM on agar plates
[3] = molecular target: T1, PITPα (Mus musculus, UniProt P53810); test: in vitro [3H]-PtdIns lipid transfer assay, mammalian PITPα; settings: 20 μM
T1 sequence (P53810 1-271): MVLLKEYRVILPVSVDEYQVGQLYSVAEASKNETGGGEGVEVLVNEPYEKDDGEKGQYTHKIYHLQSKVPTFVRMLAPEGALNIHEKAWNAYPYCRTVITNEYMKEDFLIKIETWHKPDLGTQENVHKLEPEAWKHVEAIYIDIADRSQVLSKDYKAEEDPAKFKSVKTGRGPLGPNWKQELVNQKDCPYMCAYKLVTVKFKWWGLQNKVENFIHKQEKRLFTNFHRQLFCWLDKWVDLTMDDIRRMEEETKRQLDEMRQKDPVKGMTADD

[4] = tested on: HCT116 cells; test: CellTiter-Glo luminescent cell viability assay; format: cell-based; settings: Homo sapiens, HCT-116, 72 h, read-out: IC50 [μM] HCT116
[5] = tested on: S. cerevisiae wildtype BY4743; test: growth-inhibitory potency on wildtype S. cerevisiae; settings: Saccharomyces cerevisiae, read-out: IC50 [μM] S. cerevisiae wildtype, cell based growth assay, wildtype
[6] = tested on: S. cerevisiae BY4743Δ8; test: growth assay, wildtype versus efflux-deficient wildtypeΔ8; format: cell-based, Saccharomyces cerevisiae; settings: ratio of growth IC50 wildtype to wildtypeΔ8
[7] = molecular target: Sec14p (Saccharomyces cerevisiae, UniProt P24280); test: in vitro [3H]-PtdIns lipid transfer assay, recombinant Sec14p; format: biochemical, S. cerevisiae; settings: for inhibition of Sec14p-mediated PtdIns-transfer (in words): 20 μM SMI end-point assay
[8] = molecular target: Sec14p of C. glabrata (Candida glabrata, UniProt P53989); test: in vitro [3H]-PtdIns lipid transfer assay, C. glabrata Sec14p; format: biochemical
[9] = tested on: S. cerevisiae SEC14/sec14; test: growth assay with heterozygous SEC14 deletion strain; format: cell-based, Saccharomyces cerevisiae; settings: for IC50: Saccharomyces cerevisiae, SEC14/SEC14, read-out: IC50 [μM] S. cerevisiae SEC14/sec14
[10] = molecular target: Sec14p of C. albicans (Candida albicans, UniProt P46250); test: in vitro [3H]-PtdIns lipid transfer assay, C. albicans Sec14p; format: biochemical; settings: for inhibition of PtdIns-transfer by C. albicans protein (in words): tested concentration range
[11] = tested on: mutant Sec14ps (Y151H, V154G, V155A, S173L, S201G); test: [3H]-PtdIns transfer assay with recombinant mutant Sec14ps; format: biochemical, S. cerevisiae; settings: all mutant proteins but one
[12] = tested on: Sec14p^V155A; test: [3H]-PtdIns transfer assay with recombinant Sec14p V155A; format: biochemical, S. cerevisiae
[13] = tested on: S. cerevisiae BY4743Δ8; test: MIC on solid medium; format: cell-based, Saccharomyces cerevisiae; settings: 72 hours, 30°C

Sequence of Sec14p (P24280 whole entry): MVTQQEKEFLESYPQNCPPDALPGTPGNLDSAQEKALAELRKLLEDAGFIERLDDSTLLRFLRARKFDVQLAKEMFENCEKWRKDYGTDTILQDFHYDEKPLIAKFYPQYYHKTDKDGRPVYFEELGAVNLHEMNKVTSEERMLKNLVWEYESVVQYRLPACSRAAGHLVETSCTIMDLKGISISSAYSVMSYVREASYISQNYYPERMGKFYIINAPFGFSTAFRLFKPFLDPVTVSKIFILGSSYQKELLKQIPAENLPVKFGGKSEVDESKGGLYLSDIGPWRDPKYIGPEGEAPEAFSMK
Sequence of Sec14p of C. albicans (P46250 whole entry): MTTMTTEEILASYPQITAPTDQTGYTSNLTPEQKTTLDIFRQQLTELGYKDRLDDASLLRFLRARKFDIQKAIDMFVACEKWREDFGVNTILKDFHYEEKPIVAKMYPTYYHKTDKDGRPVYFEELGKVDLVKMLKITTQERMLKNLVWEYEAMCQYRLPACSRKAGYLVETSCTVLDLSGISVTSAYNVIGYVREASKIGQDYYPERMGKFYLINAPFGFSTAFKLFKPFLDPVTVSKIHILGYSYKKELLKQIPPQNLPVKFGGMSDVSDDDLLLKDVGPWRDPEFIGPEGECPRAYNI
Sequence of Sec14p of C. glabrata (P53989 whole entry): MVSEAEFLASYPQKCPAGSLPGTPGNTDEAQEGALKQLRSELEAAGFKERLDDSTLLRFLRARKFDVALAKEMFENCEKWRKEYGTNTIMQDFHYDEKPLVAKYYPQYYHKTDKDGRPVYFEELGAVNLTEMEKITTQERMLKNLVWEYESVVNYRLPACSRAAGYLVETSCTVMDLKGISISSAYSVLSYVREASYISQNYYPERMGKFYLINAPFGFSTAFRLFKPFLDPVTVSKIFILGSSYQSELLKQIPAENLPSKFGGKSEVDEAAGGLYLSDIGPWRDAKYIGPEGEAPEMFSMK

Row | Compound | solubility in pure aqueous solutions (in words) [1] | growth of bypass Sec14p mutants under compound challenge (in words) [2] | inhibition of PtdIns-transfer by mammalian PITPα (in words) [3] | IC50 [4] [µM] | IC50 [5] [µM] | fold IC50 shift S. cerevisiae wildtype/wildtypeΔ8 [6] [x fold] | IC50 [7] [µM] | inhibition of Sec14p-mediated PtdIns-transfer (in words) [7] | IC50 [8] [µM] | fitness of SEC14/sec14Δ heterozygote relative to isogenic wildtype (in words) [9] | IC50 [9] [µM] | IC50 [10] [µM] | inhibition of PtdIns-transfer by C. albicans protein (in words) [10] | sensitivity of mutant Sec14ps other than V155A (in words) [11] | increase in IC50 of Sec14p^V155A relative to wild-type Sec14p [12] [fold] | Minimal inhibitory concentration S. cerevisiae BY4743Δ8 [13] [µM]
1 | O=C(NCc1ccc2c(c1)OCO2)c1ncc(Br)cc1F [Compound 2] | better solubility than compound 3 | indifferent to challenge | no such inhibitory effects | > 100 | 28.5 | 2.7 | 6.7 | clear inhibition | 10.9 | decreased fitness | 9.4 | > 100 | did not inhibit |  |  | 
2 | O=C(NCc1ccc2c(c1)OCO2)c1ccc(Br)cc1F [Compound 3] |  | indifferent to challenge | no such inhibitory effects | > 100 | 7 | 2.8 |  | clear inhibition |  | decreased fitness | 1.7 |  | did not inhibit | essentially indifferent | 17 | 
3 | CC[C@@H]([C@H](C)O)n1ncn(-c2ccc(N3CCN(c4ccc(OC[C@@H]5CO[C@@](Cn6cncn6)(c6ccc(F)cc6F)C5)cc4)CC3)cc2)c1=O [Posaconazole] |  |  |  |  |  |  |  |  |  |  |  |  |  |  |  | <0.3

From article PMC5856591 (Cell chemical biology, 2018)
